Laboratory results reported in the METLIN SMRT retention time set (Domingo-Almenara et al. 2019).

Test: gradient 5% acetonitrile 3 min, to 50% in 2 min, to 85% in 15 min, held 3 min, 100 µL/min
Settings: column: Zorbax Extend-C18 2.1 x 50 mm; eluents: water / acetonitrile, 0.1% formic acid
In short: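 Each retention time is based on an adduct peak selected computationally and verified by manual inspection. Measurements used HPLC–quadrupole time-of-flight mass spectrometry in positive and negative ionization mode on mixtures of ~100 pure standards. Chromatography ran on a Zorbax Extend-C18 column (2.1 × 50 mm, 1.8 μm) at 100 μL/min with water and acetonitrile, each containing 0.1% formic acid, and dead and dwell volumes of 40 μL and 900 μL.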

| RP-LC retention time | SMILES |
| --- | --- |
| 665 s | O=C(c1noc2c1CCCCC2)N1CCN(Cc2ccc3c(c2)OCO3)CC1 |
| 993 s | COCCN1CCCc2ccc(NC(=O)c3cccc(Br)c3)cc21 |
| 718 s | CCOC(=O)COc1ccc2c(c1)C(=O)CC1(CCN(C(C)=O)CC1)O2 |
| 590 s | O=C(NCCN1CCOCC1)C1CCN(c2cnc(N3CCSCC3)nc2)CC1 |
| 644 s | CSc1ccc(-c2nc3cnccn3c2Nc2ccc(C)cc2C)cc1 |
| 900 s | CCCn1cc(CCNS(=O)(=O)Cc2ccc(F)cc2Cl)c2cccnc21 |
| 1170 s | Fc1ccc(Nc2nc(N3CCOCC3)nc3c2cnn3-c2ccccc2)cc1 |
| 1250 s | COc1ccc(C2Cn3nnc(-c4nc(-c5ccc(OC(C)C)cc5)no4)c3CO2)cc1 (centres undefined) |
| 1240 s | O=C(CCc1nc(-c2ccc(N3CCCC3)cc2)no1)N1CCN(c2ccc(Cl)cc2)CC1 |
| 719 s | O=C(CC1=C2CCCCC2NC1=O)Nc1cccc(F)c1 (centres undefined) |
| 895 s | CCc1oc2cc(S(=O)(=O)Nc3ccc(S(=O)(=O)Nc4nccs4)cc3)ccc2c1C(=O)c1cc(Br)c(O)c(Br)c1 |
| 560 s | CCN1CCN(CCCNC(=O)Cn2c3ccccc3c3cnn(C)c(=O)c32)CC1 |
| 557 s | c1ccc(-c2noc(C3CNC3)n2)cc1 |
| 651 s | COc1ccc(CNC(=O)Nc2c(-c3cccc(C)c3)nc3ccccn23)cc1 |
| 612 s | COc1ccc(-c2nc3cnccn3c2Nc2ccc(C(N)=O)cc2)cc1 |
| 688 s | COc1ccc(NC(=O)CCS(=O)(=O)Cc2ccccc2)c2ccccc12 |
| 1210 s | Cc1cccc(Sc2nccnc2N2CCCC(C(=O)NCc3ccc(C)c(C)c3)C2)c1 (centres undefined) |
| 721 s | O=C(Cn1ccn2nc(-c3ccccc3)c(CO)c2c1=O)NC1CCCC1 |
| 685 s | O=C(c1cc(-c2cccnc2)n[nH]1)N1CCCC(C(=O)N2CCN(c3ccc(Cl)cc3)CC2)C1 (centres undefined) |
| 594 s | Cc1cc(C)c(C(=O)N2CCC(CC(=O)NCCCN3CCCCCC3)CC2)[nH]1 |
| 652 s | CC(C)n1nnc2cc(S(=O)(=O)N3CCCC(C(=O)N4CCC(C(N)=O)CC4)C3)ccc21 (centres undefined) |
| 897 s | CC12CC(c3ccccc3O1)C(C(=O)Nc1cccc(C(F)(F)F)c1)C(=O)N2 (centres undefined) |

| RP-LC retention time | SMILES |
| --- | --- |
| 610 s | CCC(CN1CCOCC1)NC(=O)c1c2c(nc3ccccc13)C(=O)N(C1CCCCC1)C2 (centres undefined) |
| 841 s | CCOC(=O)c1c(S(=O)(=O)N2CCC(C(=O)NCc3cccc(C)c3)CC2)c(C)n(C)c1C |
| 946 s | CCc1ccc(C2=C(C)C(N3CCCN(C(=O)C4CCCC4)CC3)=NS2(=O)=O)cc1 |
| 686 s | COc1ccc(S(=O)(=O)Nc2ccc3oc(-c4ccccc4OC)cc(=O)c3c2)cc1 |
| 784 s | COc1ccc(CC(=O)NC(CC(C)C)C(=O)Nc2nc3ccccc3[nH]2)c(Cl)c1 (centres undefined) |
| 756 s | CC(NC(=O)c1ccccc1)c1nc(-c2ccc3c(c2)nnn3C)no1 (centres undefined) |
| 662 s | Cc1c(C)n(CCCN2CCOCC2)c2ncn3nc(C(C)N4C(=O)c5ccccc5C4=O)nc3c12 (centres undefined) |
| 593 s | Cc1cnc(C(=O)NCC2CCCCC(=O)N2)cn1 (centres undefined) |
| 837 s | CCOC(=O)c1c(C)[nH]c(C)c1S(=O)(=O)N1CCC(C(=O)N2CCc3ccccc3C2)CC1 |
| 788 s | COc1ncc(C(=O)NCCc2ccc(Cl)cc2)cn1 |
| 678 s | Cc1nnc(N2CCCC(C(=O)NCCCOC(C)C)C2)c2nn(-c3ccccc3)c(C)c12 (centres undefined) |
| 1350 s | CCCCCn1c(=O)c2ccccc2n(Cc2nc(-c3cccc(OCC)c3)no2)c1=O |
| 748 s | O=C1[C@H]2CN(Cc3ccc(F)cc3)C[C@H]2C(=O)N1CCc1ccccc1 |
| 594 s | CCn1c(C)nc2c1CN(CC(=O)NCCCN1CCCc3ccccc31)CC2 |
| 818 s | CCc1ccc(C(=O)Nc2ccc3c(c2)Sc2ncccc2C(=O)N3C)cc1 |
| 700 s | Cc1ccc(NC(=O)Nc2ccc3nncn3c2)cc1 |
| 827 s | Clc1nc(NCCc2ccccc2)c2cn[nH]c2n1 |
| 765 s | O=C(NCc1cccs1)c1ccc(-n2nc(N3CCCC3)ccc2=O)cc1 |
| 971 s | COc1ccc(-c2noc(C3CCCN3C(=O)c3cc4ccccc4[nH]3)n2)cc1OC (centres undefined) |
| 631 s | CCn1cc(S(=O)(=O)N2CCC(n3c(C)cnc3-c3ccccc3)CC2)cn1 |
| 706 s | CCn1c(=O)n(CC(=O)NCCN2CCCC2)c(=O)c2cnc(-c3ccc(Cl)cc3)nc21 |
| 858 s | CC1(C(=O)NCc2ccc(Cl)cc2)CN(S(C)(=O)=O)CC(=O)N1Cc1ccccc1 (centres undefined) |

| RP-LC retention time | SMILES |
| --- | --- |
| 751 s | CC1CCN(c2cc(-n3cnc(C(=O)Nc4ccc(N(C)C)cc4)c3)ncn2)CC1 |
| 617 s | CCC1CN(C(=O)N2CCC(C(=O)NCCN3CCN(CC)CC3)CC2)c2ccccc2O1 (centres undefined) |
| 828 s | CCN1c2ccc(C)cc2C(=O)NC12CCN(C(=O)c1cc(OC)cc(OC)c1)CC2 |
| 798 s | COCCCNC(=O)NC(C(=O)N1CCc2ccccc21)c1ccccc1 (centres undefined) |
| 945 s | Cc1ccc(NC(=O)C2CCN(S(C)(=O)=O)c3ccccc3O2)cc1C (centres undefined) |
| 762 s | Cc1ccc(NC(=O)N2CCC3(CC2)NC(=O)c2ccccc2O3)cc1 |
| 970 s | CCCCn1nc2ccc(S(=O)(=O)N3CCC(C)CC3)cn2c1=O |
| 835 s | CCCN(CC1CCOC1)C(=O)Nc1cccc(Cl)c1C (centres undefined) |
| 877 s | O=C(Nc1ccc2c(c1)OCO2)C1(c2ccc(F)cc2)CC1 |
| 830 s | O=C(NCc1cccs1)c1nc2ccccn2c1-c1ccsc1 |
| 855 s | COc1ccc(OCc2noc(CNC(=O)CSc3nc4ccccc4s3)n2)cc1 |
| 751 s | Cc1ccc(S(=O)(=O)N2CCOCC2)cc1[N+](=O)[O-] |
| 702 s | CCC(C(=O)N1CCN(c2cc(=O)n(C)c(=O)n2C)CC1)N1C(=O)COc2ccccc21 (centres undefined) |
| 1120 s | c1ccc(Cc2nnc3sc(-c4ccc5ccccc5n4)nn23)cc1 |
| 611 s | O=C(c1cc(Cl)ccc1F)N1CCC(c2nc(C3CC3)n[nH]2)CC1 |
| 873 s | CC(C)(C)c1ccc(C(=O)NCc2ccco2)cc1 |
| 1020 s | COc1cccc(-c2noc(CN3C(=O)COc4ccc(Cl)cc43)n2)c1OC |
| 798 s | CN(Cc1ccccc1)C(=O)CCSC1CCc2ccccc2NC1=O (centres undefined) |
| 661 s | CCOc1ccc(NC(=O)c2nc(N(C)C)c3c(C)cc(C)nc3n2)cc1 |
| 856 s | Cc1noc(C)c1S(=O)(=O)N1CCC(c2nn(C)c(=O)n2C2CCCC2)CC1 |
| 769 s | CN1c2cc(F)ccc2C(=O)NC12CCN(C(=O)c1cccc(F)c1)CC2 |
| 900 s | O=C(Cc1cccc(Cl)c1)N1CC2CN(S(=O)(=O)c3cccc(F)c3)CC(C1)O2 |

| RP-LC retention time | SMILES |
| --- | --- |
| 639 s | COc1ccccc1C(=O)N1CCC(Oc2cc(N(C)C)ncn2)C1 (centres undefined) |
| 672 s | Cc1cccc(NC(=O)N2CCCC(Cn3cnc4cccnc43)C2)c1C (centres undefined) |
| 809 s | Cc1cc(NC(=O)CN(C)c2nc3c(Cl)cccc3s2)no1 |
| 801 s | CCOC(=O)c1ccc(NC(=O)N2CCCC2c2c(C)noc2C)cc1 (centres undefined) |
| 860 s | CC(C)Sc1ccc(CC(=O)NCC2CCN(C(=O)Nc3ccc(F)cc3)CC2)cc1 |
| 669 s | O=C(Cn1ncc2c(N3CCN(c4ccccn4)CC3)ncnc21)Nc1ccc(C(F)(F)F)cc1 |
| 833 s | COCCn1cc2c3c(cccc31)CN(C(=O)Nc1ccc(OC)cc1)CC2 |
| 579 s | OCC1CN(c2ccncn2)CC12CCN(Cc1c[nH]c3ccccc13)CC2 (centres undefined) |
| 762 s | CCn1cnc(S(=O)(=O)N2CCC(C(=O)N3CCN(c4ccccc4F)CC3)CC2)c1 |
| 1180 s | Cc1nc2cc(-c3noc(-c4ccc(Br)cc4)n3)ccc2n(C)c1=O |
| 723 s | COc1ccccc1-c1nc2cnccn2c1NCCC(=O)Nc1cc(F)ccc1F |
| 580 s | CCOc1ccc2nc(NC3=NCN(Cc4cccnc4)CN3)nc(C)c2c1 |
| 757 s | O=C(NCCc1csc(C2CCCN(C(=O)CC3CCCC3)C2)n1)C1CC1 (centres undefined) |
| 903 s | COCc1cc2nn(CC(=O)Nc3ccc(F)cc3)c(=O)n2c(-c2ccccc2)n1 |
| 1040 s | Cc1sc(-c2cc(C(F)(F)F)on2)cc1S(=O)(=O)N1CCOCC1 |
| 1230 s | Cc1ccc(-c2nnc(Cc3nc(-c4cccc(Cl)c4)no3)o2)cc1C |
| 903 s | CCN1C(=O)C(C)(C(=O)NCc2cccc(Cl)c2)Oc2cccnc21 (centres undefined) |
| 755 s | Cn1cc(CCNS(=O)(=O)c2ccc(F)cc2Cl)c2cccnc21 |
| 1000 s | O=C(c1ccccc1)c1ccc(-c2ccc(O)cc2)cc1 |
| 575 s | CN(C)C(=O)c1cc(N(C)C)nc2ccc(F)cc12 |
| 1180 s | Cc1sc(-c2noc(C3CCC3)n2)cc1S(=O)(=O)N1CCC(C(=O)N2CCCCCC2)CC1 |
| 794 s | CCCC(=O)N1CCC(C(=O)N2c3ccccc3CC2C)CC1 (centres undefined) |

| SMILES | RP-LC retention time |
| --- | --- |
| O=C(Cc1ccccc1Br)N1CCN(Cc2nncn2C2CCCCC2)CC1 | 642 s |
